Measurements taken from patent US9822147B2, “Methods of treating ophthalmic diseases using NPR-B agonists” (priority 2009, dated 2017).
Numbered stars: 1 amine (or outer) side, 2 acyl side, 3 side chain; on linkers, the order of the positions; unused ones are H or OH. Square brackets hold non-standard residues; d marks the D form. Ends that are not written are not given here. Peptide text beside a SMILES is read from it. * marks the point of attachment. Sni = (S)-nipecotic acid, O=C([C@H]1CCCN([*:1])C1)[*:2]; Pro(4R-NH2) = N[C@H]1CN[C@H](C(=O)O)C1; X2 = O=C([C@H]1CCCN([*:1])C1)[*:2]; X1 = CCCCCCCCN1CCC[C@H](C(=O)*)C1; dDap(Me2) = CN(C)C[C@@H](N)C(=O)O; Hyp = O=C(O)[C@@H]1C[C@@H](O)CN1; NHcycloheptyl = C1CCCC(N*)CC1; NMeL = CN[C@@H](CC(C)C)C(=O)O; Octanoyl = CCCCCCCC(=O)*; Api = NC1(C(=O)O)CCNCC1; Occ = octanoic acid

test system: rabbit eyes; assay: Efficacy in the rabbit: intraocular pressure (IOP) after a single topical ocular drop; format: in vivo; settings: dose 300 ug topical ocular, single 30 μL drop, up to 4 hr post dose, 1% as suspension (+) or solution (++) per mark on label
Description: A single 30 μL drop of a test item formulation was administered to rabbit eyes (n=8 to 10).
Intraocular pressure (IOP) was assessed in each eye at 0 hr, just prior to dosing, and again hourly for up to 4 hr post dose. The efficacy of a given formulation was determined based on the difference between the pretreatment TOP readings at 0 hr and the post treatment readings. A maximum percent reduction in IOP greater than 15% was noted by the “+” symbol. A maximum IOP reduction of less than 15% was assigned the “−” symbol.

| Compound | RIOP, maximum percent reduction in IOP |
| --- | --- |
| CCCCCCCC(=O)N1CCC[C@H](C(=O)N[C@@H](Cc2ccccc2)C(=O)N[C@H](CC(C)C)C(=O)N[C@@H](CC(C)C)C(=O)N2C[C@H](O)C[C@H]2C(=O)N(C)[C@@H](CC(C)C)C(=O)N[C@H](C(=O)N[C@@H](CCCNC(=N)N)C(=O)NC2CCCCCC2)C(C)C)C1 [JAL-1730, Occ-Sni-Phe-leu-Leu-Hyp-Nml-Val-Arg-Che] (Octanoyl-[X2]F[dL]L[Hyp][NMeL]VR-NHcycloheptyl) | + (+ IOP reduction >15%) |
| CCCCCCCC(=O)N1CCC[C@H](C(=O)N[C@@H](Cc2ccccc2)C(=O)NC2(C(=O)N[C@@H](CC(C)C)C(=O)N3C[C@H](O)C[C@H]3C(=O)N(C)[C@@H](CC(C)C)C(=O)N[C@@H](CC(=O)O)C(=O)N[C@@H](CCCNC(=N)N)C(=O)N[C@H](C(N)=O)[C@@H](C)CC)CCNCC2)C1 [JAL-1555, Occ-Sni-Phe-Apc-Leu-Hyp-Nml-Asp-Arg-Ile-NH2] (Octanoyl-[X2]F[Api]L[Hyp][NMeL]DRI-NH2) | + (+ IOP reduction >15%) |
| CCCCCCCCN1CCC[C@H](C(=O)N[C@@H](Cc2ccccc2)C(=O)N[C@H](CN(C)C)C(=O)N[C@@H](CC(C)C)C(=O)N2C[C@H](N)C[C@H]2C(=O)N(C)[C@@H](CC(C)C)C(=O)N[C@@H](CC(=O)O)C(=O)N[C@@H](CCCNC(=N)N)C(=O)N[C@H](C(N)=O)[C@@H](C)CC)C1 [JAL-1369, Oct-Sni-Phe-dap(Me2)-Leu-Tap-Nml-Asp-Arg-Ile-NH2] (X1-F[dDap(Me2)]L[Pro(4R-NH2)][NMeL]DRI-NH2) | + (+ IOP reduction >15%) |
| CCCCCCCCN1CCC[C@H](C(=O)N[C@@H](Cc2ccccc2)C(=O)N[C@H](CN(C)C)C(=O)N[C@@H](CC(C)C)C(=O)N2C[C@H](O)C[C@H]2C(=O)N(C)[C@@H](CC(C)C)C(=O)N[C@@H](CC(=O)O)C(=O)N[C@@H](CCCNC(=N)N)C(=O)N[C@H](C(N)=O)[C@@H](C)CC)C1 [JAL-1429, Oct-Sni-Phe-dap(Me2)-Leu-Hyp-Nml-Asp-Arg-Ile-NH2] (HELM PEPTIDE1{[CCCCCCCCN1CCC[C@H](C(=O)[*:2])C1].F.[CN(C)C[C@@H](N[*:1])C(=O)[*:2]].L.[Hyp].[meL].D.R.I.[am]}$$$$V2.0) | + (+ IOP reduction >15%) |
| Occ-Sni-Phe-dap(Me2)-Leu-Hyp-Nml-Val-Arg-Ile-NH2 ([Occ][Sni]FXL[Hyp][NMeL]VRI-NH2; not fully specified (residue 4); printed as Occ-Sni-Phe-dap(Me2)-Leu-Hyp-Nml-Val-Arg-Ile-NH2) [JAL-1400] | + (+ IOP reduction >15%) |

target: T1, NPR-B (Homo sapiens, UniProt P20594); assay: NPR-B induced production of cyclic GMP in human glaucoma trabecular meshwork cells (GTM-3); format: cell-based; settings: not given
T1 construct: a functional assay using endogenously NPR-B expressing GTM-3 cells; endogenous in cells; host or cells: GTM-3 (human glaucoma trabecular meshwork cells)
T1 sequence (P20594 23-1047): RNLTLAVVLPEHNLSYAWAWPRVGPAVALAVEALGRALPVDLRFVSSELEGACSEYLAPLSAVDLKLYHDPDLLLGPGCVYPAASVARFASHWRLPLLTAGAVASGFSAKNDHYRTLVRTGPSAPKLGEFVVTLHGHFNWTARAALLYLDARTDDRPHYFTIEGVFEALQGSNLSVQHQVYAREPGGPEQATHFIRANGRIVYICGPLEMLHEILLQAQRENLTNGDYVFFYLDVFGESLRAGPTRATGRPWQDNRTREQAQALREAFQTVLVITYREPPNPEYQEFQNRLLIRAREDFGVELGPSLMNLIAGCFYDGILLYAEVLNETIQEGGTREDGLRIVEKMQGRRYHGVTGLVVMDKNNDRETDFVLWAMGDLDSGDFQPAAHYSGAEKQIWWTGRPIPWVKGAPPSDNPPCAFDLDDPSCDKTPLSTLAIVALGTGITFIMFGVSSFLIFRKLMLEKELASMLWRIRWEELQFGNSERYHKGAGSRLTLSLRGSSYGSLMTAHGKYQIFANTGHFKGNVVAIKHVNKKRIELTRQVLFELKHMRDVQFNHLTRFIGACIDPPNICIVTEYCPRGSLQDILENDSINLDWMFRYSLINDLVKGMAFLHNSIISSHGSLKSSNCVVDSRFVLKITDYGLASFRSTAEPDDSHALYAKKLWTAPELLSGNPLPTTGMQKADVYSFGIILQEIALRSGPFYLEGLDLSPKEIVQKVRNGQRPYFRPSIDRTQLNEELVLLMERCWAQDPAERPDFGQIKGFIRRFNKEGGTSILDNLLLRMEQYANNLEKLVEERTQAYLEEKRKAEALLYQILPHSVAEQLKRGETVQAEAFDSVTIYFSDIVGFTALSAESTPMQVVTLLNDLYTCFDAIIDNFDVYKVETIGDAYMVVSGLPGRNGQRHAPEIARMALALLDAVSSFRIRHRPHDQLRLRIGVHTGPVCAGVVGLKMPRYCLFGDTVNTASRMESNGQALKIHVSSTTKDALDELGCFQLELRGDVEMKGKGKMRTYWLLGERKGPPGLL

| Compound | EC50 [µM] |
| --- | --- |
| CCCCCCCC(=O)N1CCC[C@H](C(=O)N[C@@H](Cc2ccccc2)C(=O)NCC(=O)N[C@@H](CC(C)C)C(=O)N2C[C@H](N)C[C@H]2C(=O)N(C)[C@@H](CC(C)C)C(=O)N[C@@H](CC(=O)O)C(=O)N[C@@H](CCCNC(=N)N)C(=O)N[C@H](C(N)=O)[C@@H](C)CC)C1 [JAL-1320, Occ-Sni-Phe-Gly-Leu-Tap-Nml-Asp-Arg-Ile-NH2] (Octanoyl-[X2]FGL[Pro(4R-NH2)][NMeL]DRI-NH2) | < 1 |

same assay, conditions: group by EC50 and Emax (CNP = 100%); Table 4; read-out: Activity (group), NPR-B activation assayed with GTM-3 cells

| Compound | EC50 [µM] |
| --- | --- |
| CCCCCCCC(=O)N1CCC[C@H](C(=O)N[C@@H](Cc2ccccc2)C(=O)N[C@H](CC(C)C)C(=O)N[C@@H](CC(C)C)C(=O)N2C[C@H](O)C[C@H]2C(=O)N(C)[C@@H](CC(C)C)C(=O)N[C@H](C(=O)N[C@@H](CCCNC(=N)N)C(=O)NC2CCCCCC2)C(C)C)C1 [JAL-1730, Occ-Sni-Phe-leu-Leu-Hyp-Nml-Val-Arg-Che] (Octanoyl-[X2]F[dL]L[Hyp][NMeL]VR-NHcycloheptyl) | < 1 |
| CCCCCCCC(=O)N1CCC[C@H](C(=O)N[C@@H](Cc2ccccc2)C(=O)NC2(C(=O)N[C@@H](CC(C)C)C(=O)N3C[C@H](O)C[C@H]3C(=O)N(C)[C@@H](CC(C)C)C(=O)N[C@@H](CC(=O)O)C(=O)N[C@@H](CCCNC(=N)N)C(=O)N[C@H](C(N)=O)[C@@H](C)CC)CCNCC2)C1 [JAL-1555, Occ-Sni-Phe-Apc-Leu-Hyp-Nml-Asp-Arg-Ile-NH2] (Octanoyl-[X2]F[Api]L[Hyp][NMeL]DRI-NH2) | < 1 |
| CCCCCCCCCC(=O)N1CCC[C@H](C(=O)N[C@@H](Cc2ccccc2)C(=O)N[C@H](CC(C)C)C(=O)N[C@@H](CC(C)C)C(=O)N2C[C@H](O)C[C@H]2C(=O)N(C)[C@@H](CC(C)C)C(=O)N[C@@H](CC(=O)O)C(=O)N[C@@H](CCCNC(=N)N)C(=O)N[C@H](C(N)=O)[C@@H](C)CC)C1 [JAL-1666, 5587-Sni-Phe-leu-Leu-Hyp-Nml-Asp-Arg-Ile-NH2] (HELM PEPTIDE1{[CCCCCCCCCC(=O)[*:2]].[O=C([C@H]1CCCN([*:1])C1)[*:2]].F.[dL].L.[Hyp].[meL].D.R.I.[am]}$$$$V2.0) | < 1 |
